Measured values published in patent US10717781B2, “Neuroinvasion inhibitor” (National Cancer Center, priority 2008, dated 2020).
Where a name gives a salt, the structure may show the parent alone.

Legend:
[1] = tested on: neural invasion of human pancreatic cancer cells in mouse sciatic nerve; assay: administration of inhibitors to neural invasion model mice; assay type: in vivo
Description: Six-week-old male mice with severe combined immune deficiency (SCID) were used. The mice were anesthetized by administering barbital at 50 mg/kg into their peritoneal cavities. After exposing the left sciatic nerves, 2.5 μl of a suspension of cancer cells (1.0×10^4 cells/μl) was injected directly into the sciatic nerves using a microsyringe and 30-gauge needle. Upon assessment, the sciatic nerves into which cancer cells were injected were isolated. When tissue samples were prepared, the nerves were allowed to stand in 4% paraformaldehyde at 4° C. for one whole day and night to fix them. The fixed sciatic nerves were sliced into 3-μm sections, and then immunostained or hematoxylin/eosin-stained to measure the distance of neural invasion. Using an objective micrometer (Sankei Co.), the longitudinal length of the whole tumor was measured in the longitudinally sliced thin sections of the nerves to determine the distance of neural invasion. Tissue mRNA was extracted from tissue samples prepared by crushing with a Multi-Beads Shocker (Yasui Kikai Co.) immediately after harvesting the tissues.
The distance of neural invasion is an important factor in the mode of invasion of pancreatic cancer. […]
The analysis software used was STATVIEW 5.0. The difference between average values was evaluated by two-sided Student-t test. […]

pancreatic cancer = pancreatic cancer patients, foreign phase III clinical trial data, cited from earlier work
[2] = tested on: human pancreatic cancer cell lines; assay: cell growth activity by monitoring the cell count over time; assay type: cell-based; details: cell count over time (FIGS. 2A and 2B)
Description: (§1) Capan-1 and BxPC-3, which are human pancreatic cancer cell lines, were purchased from the American Type Culture Collection (ATCC). According to the manual recommended by ATCC, the cells were cultured and passaged using an incubator capable of maintaining a temperature of 37° C. under 5% CO2.
Cells were harvested from dishes, and viable cells were counted using trypan blue and a hemocytometer.
(§2) Using human recombinant IL-6, the effects of IL-6 on growth activity, chemotactic activity, and migratory activity of the human pancreatic cancer cell lines were assessed by monitoring the cell count over time (FIGS. 2A and 2B), by chemotaxis assay (FIG. 2C), and by wound healing assay (FIG. 2D).

[3] = tested on: human pancreatic cancer cell lines; assay: chemotaxis assay; assay type: cell-based; details: hrIL6 0, 1, 10, 100 ng/ml, 24 hours (FIG. 2C)
Description: as §1
Cell culture inserts (BD Falcon) having 8-μm pores in the bottom surface were inserted into 24 wells. The cell culture inserts and wells were used as upper and lower chambers, respectively. Human recombinant IL-6 (hrIL6) vehicles were prepared at 0, 1, 10, and 100 ng/ml using hrIL6 (R&D systems) and serum-free culture medium. 600 μl of the hrIL6 vehicles was added to the lower chambers. 100 μl of a cell suspension (2×10^6 cells/ml) was added to the upper chambers. After 24 hours of incubation, cells that passed through the pores were counted. This assay was carried out twelve times for each group. The cell count was divided by the average number of cells that passed through the pores at 0 ng/ml hrIL6. The resulting normalized values were recorded.
as §2

[4] = tested on: human pancreatic cancer cell lines; assay: wound healing assay (migratory activity); assay type: cell-based; details: hrIL6 0, 1, 10, 100 ng/ml, 24 hours (FIG. 2D)
Description: as §1
1 ml of a cell suspension (3×10^5 cells/ml) was added to each of 24 wells, and incubated for 24 hours. Then, the medium was replaced with serum-free medium. After 24 hours of incubation, a strip-shaped cell-free area was produced by scraping the central area of the well with a glass rod. After measuring the width of the strip, the medium was replaced with an hrIL6 vehicle at 0, 1, 10, or 100 ng/ml. After 24 hours of incubation, changes in the width of the cell-free area were determined. This assay was carried out twelve times for each group. The determined values were divided by the average width change at 0 ng/ml hrIL6. The resulting normalized values were recorded.
as §2

[5] = tested on: human pancreatic cancer Capan-1 cell line; assay: Western blotting of intracellular signaling (pSTAT3, pErk1/2, pAkt); assay type: cell-based
Description: Western blotting was carried out using the following primary antibodies: anti-phosphorylated STAT3 antibody (Santa Cruz), anti-STAT3 antibody (Santa Cruz), anti-phosphorylated Erk1/2 antibody (Cell Signaling), anti-Erk1/2 antibody (Cell Signaling), anti-phosphorylated Akt antibody (Cell Signaling), anti-Akt antibody (Cell Signaling), and anti-actin antibody (Santa Cruz). Fluorescent immunostaining was carried out using the following primary antibodies: anti-S100 antibody (DAKO) and anti-mouse IL-6 antibody (Santa Cruz). Nuclear staining was performed using DRAQ5 (AXXORA). Immunostaining was performed using an anti-phosphorylated STAT3 antibody (Santa Cruz).
Cell lysates were prepared using a lysate buffer (20 mM Hepes-NaOH (pH 7.0), 0.5% NP-40, 15% Glycerol, 300 mM NaCl, 1 mM EDTA, 10 mM NaF). The protein concentration was determined using a BCA Protein Assay Kit (PIERCE). Then, cell lysates containing […] of protein were electrophoresed in 7.5% or 12% acrylamide gels. The proteins were transferred onto a polyvinylidene difluoride membrane (Millipore). An antibody was added to the membrane, and the protein expression was visualized using Enhanced Chemiluminescence Reagent (Amersham Biosciences).
Using human recombinant IL-6 (rhIL6), the effect of IL-6 on intracellular signaling of the human pancreatic cancer Capan-1 cell line was assessed by Western blotting for phosphorylated STAT3 (pSTAT3) (FIG. 3A), phosphorylated Erk1/2 (pErk1/2) (FIG. 3B), and phosphorylated Akt (pAkt) (FIG. 3C). […] In contrast, IL-6 had no effect on the expression of phosphorylated Akt.

Compound: N#C/C(=C/c1ccc(O)c(O)c1)C(=O)NCc1ccccc1 [AG490]
- neural invasion (invasion distance) ([1]; 0.5 mg intraperitoneally every day for 12 days from two days after injection of cancer cells, assessed at two weeks, vs 1% DMSO (FIG. 9A)): suppression of neural invasion

Compound: Nc1ccn([C@@H]2O[C@H](CO)[C@@H](O)C2(F)F)c(=O)n1 [gemcitabine hydrochloride]
- efficacy rate of palliative effects (pancreatic cancer; first drug of choice): 23.8%
- median survival time (pancreatic cancer): 5.7 months
- one-year survival rate (pancreatic cancer): 18%

Compound: IL-6: Human recombinant IL-6 (R&D systems), cytokine added to pancreatic cancer cell lines
- effect on cell growth [2]: no effect
- effect on chemotactic activity [3]: enhances
- effect on migratory activity [4]: enhances
- expression of phosphorylated Akt ([5]; Capan-1 (FIG. 3C)): no effect
- intracellular expression level of phosphorylated STAT3 protein ([5]; Capan-1, 15 minutes after addition of rhIL6 (FIG. 3A)): clearly elevated
- intracellular expression level of phosphorylated Erk1/2 proteins ([5]; Capan-1, one hour after addition of rhIL6 (FIG. 3B)): clearly elevated

Compound: anti-human IL-6 receptor antibody: anti-IL-6 receptor antibody (tocilizumab; Chugai Pharmaceutical Co.), which inhibits the human IL-6 receptor; humanized PM-1 antibody
- neural invasion (invasion distance) ([1]; 5 μg/g twice a week for two weeks from one week after injection of cancer cells, assessed at three weeks, vs human IgG (FIG. 9B)): suppression of neural invasion
